This assay has as its system human MSC. The assay can be described thus: Anti-oxidative stress testing, LIVE/DEAD Viability/Cytotoxicity Assay with H2O2. It is filed as cell-based. The note with it: MSCs, 12 hours of oxidative stress (100 μM H2O2). How it is done: The percentage of live and dead cells was determined simultaneously by measuring intracellular esterase activity and plasma membrane integrity using the LIVE/DEAD® Viability/Cytotoxicity Assay Kit (Life Technologies). Briefly, human MSC were plated on 24 wells plate. On, next day cells were treated with ingredients and 100 μM H2O2 for 12 hr. The supernatant media from each well was collected into microtubes and cells were washed with 1×PBS, followed by collection of washes into respective microtubes to collect any floating or dead cells. The cells attached to the bottom of the plate were incubated in 1×PBS in a 37° C. incubator. The microtubes were centrifuged at 2000 rpm for 3 min to get the cell pellet. After removing supernatant, cell pellet was resuspended into 1×PBS containing 2 μM calcein AM and 4 μM ethidium/homodimer. […] The cells were then imaged under 10× objective using fluorescence microscope (Olympus IX71).
The percentage of live and dead cells was determined simultaneously by measuring intracellular esterase activity and plasma membrane integrity using the LIVE/DEAD® Viability/Cytotoxicity Assay Kit (Life Technologies). […] The cells were then imaged under 10× objective using fluorescence microscope (Olympus IX71).
Fluorescence microscope images showing a percentage of live and dead MSCs in 24 wells after 12 hours of treatment with oxidative stress (100 μM H2O2) were examined. […]

On to `C=C1CC[C@H](O)C/C1=C/C=C1\CCC[C@]2(C)[C@@H]([C@H](C)CCCC(C)C)CC[C@@H]12` [Vitamin D alone (0.3 mg), cholecalciferol], for which the “Cell Survival Rate Measured by Fluorescence Microscope (%)” value is listed as 2.5%.

(Values after US9980993B2, “Nutraceutical supplement with Lactobacillus rhamnosus” (NWO Stem Cure, LLC, priority 2014, dated 2018).)
